Measurements taken from patent US5843449A, “Proteins and novel peptides derived from autoantigen for use in immunotherapy of autoimmune diseases” (Akzo Nobel N.V., priority 1996, dated 1998).
Read-outs that look alike come from different tables or passages of the source. Residues, ends and D or L forms follow the SMILES beside them.

Tests used:
[1] = biological target: T1, DR4Dw4 (DRB1*0401) HLA-DR molecules (Homo sapiens, UniProt P01903+P01911, A100K/A169T/F76Y/I96L/K127E/L162R/M171V/N62H/P40V/Q125Y/R42H/S133A/S149N/S66Y/V115G/V209L/W38E); assay: HLA-DR peptide binding assay (competition with biotinylated marker peptide), DR4Dw4; details: pH = 5, 50 nM biotin-spacer-IHA(307-319)F marker peptide
T1 construct: endogenous in cells; host or cells: BSM, EBV-transformed B-cell line

DR4Dw14 HLA-DR molecules = assay: HLA-DR peptide binding assay (competition with biotinylated marker peptide), DR4Dw14; parameters: species or system human; details: pH = 5, 50 nM biotin-spacer-IHA(307-319)F marker peptide
PBMC from RA patients = assay: Proliferative responses of PBMC from RA patients (3H-thymidine); assay type: cell-based, human; details: 10% autologous serum
Method: Peripheral blood mononuclear cells (PBMC) from patients who were diagnosed as suffering from RA according to the American Rheumatism Association (ARA) criteria (Arnett et al., Arthritis Rheum. 31:315, 1988) were collected.
(§1) PBMC obtained from heparinized venous peripheral blood were isolated by standard centrifugation on a Ficoll-Paque gradient. […] Cultures were incubated in a total volume of 210 μl for 7 days at 37° C. in a humidified atmosphere of 5% CO2. Cultures were pulsed during the last 18 hours with 0.25 μCi^3 H-thymidine.

PBMC from healthy donors = assay: Proliferative responses of PBMC from healthy donors (3H-thymidine); assay type: cell-based, human; details: 10% autologous serum
Method: PBMC's from healthy donors carrying the DR4Dw4 (DRB1*0401) or the DR1 specificity were collected as a control.
as §1

CC(C)[C@H](N)C(=O)NCC(=O)N[C@@H](Cc1ccc(O)cc1)C(=O)N[C@@H](CC(=O)O)C(=O)N[C@@H](CC(=O)O)C(=O)N[C@@H](CCC(N)=O)C(=O)N[C@@H](CCC(=O)O)C(=O)N[C@@H](CO)C(=O)N[C@H](C(=O)N[C@@H](CCCCN)C(=O)N[C@@H](CO)C(=O)N[C@@H](CCCCN)C(=O)N[C@H](C(=O)O)C(C)C)C(C)C [Peptide 3] (H-VGYDDQESVKSKV-OH) was tested, and the IC50 ([1]; DOT Blot, densitometer, read-out: ^R IC50, DR4Dw4, DOT Blot) was 230 nM, the IC50 ([1]; SDS-PAGE, visual inspection, read-out: ^R IC50, DR4Dw4, SDS-PAGE) was 1000 nM and the IC50 (DR4Dw14 HLA-DR molecules; DOT Blot, densitometer, read-out: ^R IC50, DR4Dw14, DOT Blot) was over 10 µM. For the same molecule, the IC50 (DR4Dw14 HLA-DR molecules; SDS-PAGE, visual inspection, read-out: ^R IC50, DR4Dw14, SDS-PAGE) was at most 50 µM, the “Proliferative response, stimulation index (SI)” value (PBMC from RA patients; RA patient 191-03 (HR), disease state IV, peptide 10 μg/l) was 1 and the “Proliferative response, stimulation index (SI)” value (PBMC from RA patients; RA patient 191-03 (HR), disease state IV, peptide 100 μg/l) was under 2. For the same molecule, the “Proliferative response, stimulation index (SI)” value (PBMC from RA patients; RA patient 215-0 (HR), disease state III-IV, peptide 25 μg/l) was 3, the “Proliferative response, stimulation index (SI)” value (PBMC from RA patients; RA patient 215-0 (HR), disease state III-IV, peptide 100 μg/l) was 6 and the “Proliferative response, stimulation index (SI)” value (PBMC from RA patients; RA patient 240-0 (HR), disease state II-III, peptide 25 μg/l) was 2. The “Proliferative response, stimulation index (SI)” value (PBMC from RA patients; RA patient 240-0 (HR), disease state II-III, peptide 100 μg/l) was 6, the “Proliferative response, stimulation index (SI)” value (PBMC from RA patients; RA patient 242-0 (HR), disease state I, peptide 25 μg/l) was 9 and the “Proliferative response, stimulation index (SI)” value (PBMC from RA patients; RA patient 242-0 (HR), disease state I, peptide 100 μg/l) was 3. The “Proliferative response, stimulation index (SI)” value (PBMC from RA patients; RA patient 243-0 (R), disease state III, peptide 10 μg/l) was 1, the “Proliferative response, stimulation index (SI)” value (PBMC from RA patients; RA patient 243-0 (R), disease state III, peptide 100 μg/l) was 1 and the “Proliferative response, stimulation index (SI)” value (PBMC from RA patients; RA patient 247-0 (R), disease state III, peptide 10 μg/l) was 1. The “Proliferative response, stimulation index (SI)” value (PBMC from RA patients; RA patient 248-0 (R), disease state III, peptide 10 μg/l) was 1, the “Proliferative response, stimulation index (SI)” value (PBMC from RA patients; RA patient 248-0 (R), disease state III, peptide 100 μg/l) was 1 and the “Proliferative response, stimulation index (SI)” value (PBMC from RA patients; RA patient 272-0 (HR), disease state III-IV, peptide 10 μg/l) was under 1. For the same molecule, the “Proliferative response, stimulation index (SI)” value (PBMC from RA patients; RA patient 272-0 (HR), disease state III-IV, peptide 100 μg/l) was under 1, the “Proliferative response, stimulation index (SI)” value (PBMC from RA patients; RA patient 273-0 (HR), disease state IV, peptide 10 μg/l) was 1 and the “Proliferative response, stimulation index (SI)” value (PBMC from RA patients; RA patient 273-0 (HR), disease state IV, peptide 100 μg/l) was 6. The “Proliferative response, stimulation index (SI)” value (PBMC from RA patients; RA patient 275-0 (HR), disease state III, peptide 10 μg/l) was 1, the “Proliferative response, stimulation index (SI)” value (PBMC from RA patients; RA patient 275-0 (HR), disease state III, peptide 100 μg/l) was 1 and the “Proliferative response, stimulation index (SI)” value (PBMC from RA patients; RA patient 276-0 (HR), disease state IV, burnt out, peptide 10 μg/l) was under 1. For the same molecule, the “Proliferative response, stimulation index (SI)” value (PBMC from RA patients; RA patient 276-0 (HR), disease state IV, burnt out, peptide 100 μg/l) was 1, the “Proliferative response, stimulation index (SI)” value (PBMC from RA patients; RA patient 280-0 (HR), disease state IV, burnt out, peptide 10 μg/l) was 1 and the “Proliferative response, stimulation index (SI)” value (PBMC from RA patients; RA patient 280-0 (HR), disease state IV, burnt out, peptide 100 μg/l) was 1. The “Proliferative response, stimulation index (SI)” value (PBMC from healthy donors; healthy donor 155-03 (NR), peptide 10 μg/ml) was under 2, the “Proliferative response, stimulation index (SI)” value (PBMC from healthy donors; healthy donor 155-03 (NR), peptide 100 μg/ml) was 1 and the “Proliferative response, stimulation index (SI)” value (PBMC from healthy donors; healthy donor 156-03 (NR), peptide 10 μg/ml) was 1. The “Proliferative response, stimulation index (SI)” value (PBMC from healthy donors; healthy donor 156-03 (NR), peptide 100 μg/ml) was under 1, the “Proliferative response, stimulation index (SI)” value (PBMC from healthy donors; healthy donor 157-03 (NR), peptide 10 μg/ml) was 1 and the “Proliferative response, stimulation index (SI)” value (PBMC from healthy donors; healthy donor 157-03 (NR), peptide 100 μg/ml) was 1. For the same molecule, the “Proliferative response, stimulation index (SI)” value (PBMC from healthy donors; healthy donor 157-04 (R), peptide 10 μg/ml) was 1, the “Proliferative response, stimulation index (SI)” value (PBMC from healthy donors; healthy donor 168-03 (NR), peptide 10 μg/ml) was 1 and the “Proliferative response, stimulation index (SI)” value (PBMC from healthy donors; healthy donor 168-03 (NR), peptide 100 μg/ml) was 1. The “Proliferative response, stimulation index (SI)” value (PBMC from healthy donors; healthy donor 168.02 (NR), peptide 10 μg/ml) was under 2, the “Proliferative response, stimulation index (SI)” value (PBMC from healthy donors; healthy donor 168.02 (NR), peptide 100 μg/ml) was under 2 and the “Proliferative response, stimulation index (SI)” value (PBMC from healthy donors; healthy donor 169-02 (NR), peptide 10 μg/ml) was 1. For the same molecule, the “Proliferative response, stimulation index (SI)” value (PBMC from healthy donors; healthy donor 169-02 (NR), peptide 100 μg/ml) was 1, the “Proliferative response, stimulation index (SI)” value (PBMC from healthy donors; healthy donor 230-01 (NR), peptide 10 μg/ml) was 1 and the “Proliferative response, stimulation index (SI)” value (PBMC from healthy donors; healthy donor 230-01 (NR), peptide 100 μg/ml) was 1. For the same molecule, the “Proliferative response, stimulation index (SI)” value (PBMC from healthy donors; healthy donor 235-0 (NR), peptide 10 μg/ml) was 1, the “Proliferative response, stimulation index (SI)” value (PBMC from healthy donors; healthy donor 235-0 (NR), peptide 100 μg/ml) was under 2 and the “Proliferative response, stimulation index (SI)” value (PBMC from healthy donors; healthy donor 235-01 (NR), peptide 10 μg/ml) was under 1. For the same molecule, the “Proliferative response, stimulation index (SI)” value (PBMC from healthy donors; healthy donor 235-01 (NR), peptide 100 μg/ml) was under 2, the “Proliferative response, stimulation index (SI)” value (PBMC from healthy donors; healthy donor 236-01 (NR), peptide 10 μg/ml) was 1 and the “Proliferative response, stimulation index (SI)” value (PBMC from healthy donors; healthy donor 236-01 (NR), peptide 100 μg/ml) was under 1. For the same molecule, the “Proliferative response, stimulation index (SI)” value (PBMC from healthy donors; healthy donor 237-0 (NR), peptide 10 μg/ml) was under 1, the “Proliferative response, stimulation index (SI)” value (PBMC from healthy donors; healthy donor 237-0 (NR), peptide 100 μg/ml) was 1 and the “Proliferative response, stimulation index (SI)” value (PBMC from healthy donors; healthy donor 237-01 (NR), peptide 10 μg/ml) was 1. The “Proliferative response, stimulation index (SI)” value (PBMC from healthy donors; healthy donor 237-01 (NR), peptide 100 μg/ml) was 1, the “Proliferative response, stimulation index (SI)” value (PBMC from healthy donors; healthy donor 238-01 (NR), first line so labelled, peptide 10 μg/ml) was 1 and the “Proliferative response, stimulation index (SI)” value (PBMC from healthy donors; healthy donor 238-01 (NR), first line so labelled, peptide 100 μg/ml) was 1. The “Proliferative response, stimulation index (SI)” value (PBMC from healthy donors; healthy donor 238-01 (NR), second line so labelled, peptide 10 μg/ml) was 1, the “Proliferative response, stimulation index (SI)” value (PBMC from healthy donors; healthy donor 238-01 (NR), second line so labelled, peptide 100 μg/ml) was 1 and the “Proliferative response, stimulation index (SI)” value (PBMC from healthy donors; healthy donor 241-0 (NR), peptide 10 μg/ml) was under 1. For the same molecule, the “Proliferative response, stimulation index (SI)” value (PBMC from healthy donors; healthy donor 241-0 (NR), peptide 100 μg/ml) was under 1, the “Proliferative response, stimulation index (SI)” value (PBMC from healthy donors; healthy donor 241-01 (R), peptide 10 μg/ml) was under 1 and the “Proliferative response, stimulation index (SI)” value (PBMC from healthy donors; healthy donor 241-01 (R), peptide 100 μg/ml) was 1.
